Test results from patent US20240376048A1 (Celgene Corporation, priority 2021, published 2024).

The compounds below were run against S1P5 (Homo sapiens, UniProt Q9H228) (assay: [35S]-GTPγS binding assay (S1P5 agonism), CHO cell membranes). Details: membranes of CHO cells expressing recombinant S1P5 receptors, measure of S1P5 agonism.
Format: biochemical
Experimental: CHO cells expressing recombinant S1P5 receptors were cultured in 500 cm^2 culture trays and, once confluent, rinsed and detached with cell-lifting buffer (10 mM HEPES, 154 mM NaCl, 6.85 mM EDTA, pH 7.4). Cells were then pelleted by centrifugation, resuspended, and homogenized in membrane preparation buffer (10 mM HEPES and 10 mM EDTA, pH 7.4) using a Polytron PT 1200E homogenizer (Kinematica, Luzern, Switzerland). Cellular proteins were pelleted by centrifugation at 48,000×g at 4° C. for 30 minutes. The resulting supernatant was discarded, and the pellet was re-suspended again in membrane preparation buffer, homogenized for a second time, and then centrifuged again as described above. The final cellular protein pellet was suspended in ice cold resuspension buffer (10 mM HEPES and 0.1 mM EDTA, pH 7.4), divided into aliquots, and stored at −80° C. until use.
Functional binding assays for [^35S]-GTPγS were performed in 96-well non-binding surface plates with a final volume of 200 μL. The test compounds were serially diluted in DMSO and added to assay plates using a Tecan D300E digital printer with a total volume of […]. The control sphingosine-1-phosphate (S1P) was prepared separately by preparing a 400 μM stock solution from a 100 nmol pellet of S1P in 10 mM Na2CO3 with 2% […]. The serial dilution of S1P was done using complete assay buffer (20 mM HEPES, 10 mM MgCl2, 100 mM NaCl, 1 mM EDTA, 0.1% fatty acid free bovine serum albumin (BSA), and 30 μg/mL saponin, pH 7.4) and transferred to wells already containing 0.4 μL DMSO. All the wells were then loaded to a total volume of 40 μL of complete assay buffer, except the non-specific binding (NSB) wells. For NSB wells, 40 μL/well of 50 μM GTPγS (Sigma Aldrich, cat #G8634, St. Louis, MO) was added to wells containing 0.4 μL of DMSO. The assay was started by the addition of 120 μL/well of CHO-SlP receptor membrane solution containing 40 μg/mL of membrane protein, 16.67 μM guanosine diphosphate (GDP; Sigma Aldrich, cat #G7127, St. Louis, MO), and 2.5 mg/mL of WGA PVT SPA beads in complete buffer. Assay plates were then sealed and incubated at room temperature with gentle agitation for 30 minutes. Next, 40 µL/well of 1 nM of [^35S]-GTPγS (PerkinElmer, cat #NEG030X25OUC, Waltham, MA) in basic assay buffer (20 mM HEPES, 10 mM MgCl2, 100 mM NaCl, and 1 mM EDTA, pH7.4) was added to the assay plates to yield a final concentration of 200 pM and the plates were further incubated for 40 minutes at room temperature with gentle agitation. The assay was terminated by centrifugation of the plates at 1000 rpm for 3 minutes using an Eppendorf 5810R centrifuge (Eppendorf, Hamburg, Germany) and G protein bound radioactivity was quantitated using a MicroBeta2 microplate scintillation counter (PerkinElmer, Waltham, MA). As G protein bound radioactivity directly correlates to receptor activation and coupling to the G protein, this assay is a measure of S1P5 agonism.

Sequence of S1P5 (Q9H228 whole entry, species assumed): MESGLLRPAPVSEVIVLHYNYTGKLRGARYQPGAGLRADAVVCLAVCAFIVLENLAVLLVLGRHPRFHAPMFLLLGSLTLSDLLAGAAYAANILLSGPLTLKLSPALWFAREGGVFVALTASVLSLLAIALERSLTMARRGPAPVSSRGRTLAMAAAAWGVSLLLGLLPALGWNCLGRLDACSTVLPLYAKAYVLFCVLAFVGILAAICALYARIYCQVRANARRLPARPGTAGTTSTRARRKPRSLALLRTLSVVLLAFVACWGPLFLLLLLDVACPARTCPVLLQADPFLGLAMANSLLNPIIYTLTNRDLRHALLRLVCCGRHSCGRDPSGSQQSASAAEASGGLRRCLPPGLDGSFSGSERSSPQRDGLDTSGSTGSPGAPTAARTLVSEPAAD

| SMILES | EC50 [nM] |
| --- | --- |
| O=C(O)[C@H]1CCN(C2CCc3cc(OCc4c(Cl)cccc4Cl)ccc32)C1 (single isomer, unassigned) [Compound 24a] | 10 to 100 |
| O=C(O)[C@H]1CCN(C2CCc3cc(OCc4c(Cl)cccc4Cl)ccc32)C1 (single isomer, unassigned) [Compound 24b] | 1 to 10 |
| O=C(O)[C@@H]1CCN(C2CCc3cc(OCc4c(Cl)cccc4Cl)ccc32)C1 (single isomer, unassigned) [Compound 25a] | 1 to 10 |
| O=C(O)[C@@H]1CCN(C2CCc3cc(OCc4c(Cl)cccc4Cl)ccc32)C1 (single isomer, unassigned) [Compound 25b] | 1 to 10 |
| O=C(O)C1CCN(C2CCc3cc(OCc4cccc(C(F)(F)F)c4)ccc32)CC1 (single isomer, unassigned) [Compound 26a, 1-(5-((3-(trifluoromethyl)benzyl)oxy)-2,3-dihydro-1H-inden-1-yl)piperidine-4-carboxylic acid] | 10 to 100 |
| O=C(O)C1CCN(C2CCc3cc(OCc4cccc(C(F)(F)F)c4)ccc32)CC1 (single isomer, unassigned) [Compound 26b, 1-(5-((3-(trifluoromethyl)benzyl)oxy)-2,3-dihydro-1H-inden-1-yl)piperidine-4-carboxylic acid] | 100 to 1000 |
| Cc1ccc(COc2ccc3c(c2)CCC3N2CC(C(=O)O)C2)cc1Cl (centres unmarked) [Compound 1, 1-(5-((3-chloro-4-methylbenzyl)oxy)-2,3-dihydro-1H-inden-1-yl)azetidine-3-carboxylic acid] | 1 to 10 |
| Cc1ccc(COc2ccc3c(c2)CCC3N2CC(C(=O)O)C2)cc1C(F)(F)F (centres unmarked) [Compound 2, 1-(5-((4-methyl-3-(trifluoromethyl)benzyl)oxy)-2,3-dihydro-1H-inden-1-yl)azetidine-3-carboxylic acid] | 10 to 100 |
| Cc1ccc(COc2ccc3c(c2)CCC3N2CC(C(=O)O)C2)c(Cl)c1 (centres unmarked) [Compound 3, 1-(5-((2-chloro-4-methylbenzyl)oxy)-2,3-dihydro-1H-inden-1-yl)azetidine-3-carboxylic acid] | 1 to 10 |
| Cc1ccc(COc2ccc3c(c2)CCC3N2CC(C(=O)O)C2)c(F)c1 (centres unmarked) [Compound 4, 1-(5-((2-fluoro-4-methylbenzyl)oxy)-2,3-dihydro-1H-inden-1-yl)azetidine-3-carboxylic acid] | 10 to 100 |
| CC(C)Oc1ccc(COc2ccc3c(c2)CCC3N2CC(C(=O)O)C2)cc1C(F)(F)F (centres unmarked) [Compound 5, 1-(5-((4-isopropoxy-3-(trifluoromethyl)benzyl)oxy)-2,3-dihydro-1H-inden-1-yl)azetidine-3-carboxylic acid] | 1 to 10 |
| CC(C)Oc1ccc(COc2ccc3c(c2)CCC3N2CC(C(=O)O)C2)cc1C#N (centres unmarked) [Compound 6, 1-(5-((3-cyano-4-isopropoxybenzyl)oxy)-2,3-dihydro-1H-inden-1-yl)azetidine-3-carboxylic acid] | 10 to 100 |
| O=C(O)C1CN(C2CCc3cc(OCc4ccc(C5CC5)cc4F)ccc32)C1 (centres unmarked) [Compound 7, 1-(5-((4-cyclopropyl-2-fluorobenzyl)oxy)-2,3-dihydro-1H-inden-1-yl)azetidine-3-carboxylic acid] | 10 to 100 |
| O=C(O)C1CN(C2CCc3cc(OCc4ccc(C5CC5)cc4Cl)ccc32)C1 (centres unmarked) [Compound 8, 1-(5-((2-chloro-4-cyclopropylbenzyl)oxy)-2,3-dihydro-1H-inden-1-yl)azetidine-3-carboxylic acid] | 10 to 100 |
| O=C(O)C1CN(C2CCc3cc(OCc4ccc(C5CC5)c(C(F)(F)F)c4)ccc32)C1 (centres unmarked) [Compound 9, 1-(5-((4-cyclopropyl-3-(trifluoromethyl)benzyl)oxy)-2,3-dihydro-1H-inden-1-yl)azetidine-3-carboxylic acid] | 1 to 10 |
| O=C(O)C1CN(C2CCc3cc(OCc4ccc(C5CC5)c(Cl)c4)ccc32)C1 (centres unmarked) [Compound 10, 1-(5-((3-chloro-4-cyclopropylbenzyl)oxy)-2,3-dihydro-1H-inden-1-yl)azetidine-3-carboxylic acid] | 10 to 100 |

| SMILES | EC50 [nM] |
| --- | --- |
| O=C(O)C1CN(C2CCc3cc(OCc4ccccc4F)ccc32)C1 (centres unmarked) [Compound 11, 1-(5-((2-fluorobenzyl)oxy)-2,3-dihydro-1H-inden-1-yl)azetidine-3-carboxylic acid] | 10 to 100 |
| O=C(O)C1CN(C2CCc3cc(OCc4cccc(F)c4)ccc32)C1 (centres unmarked) [Compound 12, 1-(5-((3-fluorobenzyl)oxy)-2,3-dihydro-1H-inden-1-yl)azetidine-3-carboxylic acid] | 10 to 100 |
| O=C(O)C1CN(C2CCc3cc(OCc4ccc(F)cc4)ccc32)C1 (centres unmarked) [Compound 13, 1-(5-((4-fluorobenzyl)oxy)-2,3-dihydro-1H-inden-1-yl)azetidine-3-carboxylic acid] | 10 to 100 |
| O=C(O)C1CN(C2CCc3cc(OCc4ccc(F)cc4F)ccc32)C1 (centres unmarked) [Compound 14, 1-(5-((2,4-difluorobenzyl)oxy)-2,3-dihydro-1H-inden-1-yl)azetidine-3-carboxylic acid] | 10 to 100 |
| O=C(O)C1CN(C2CCc3cc(OCc4cc(F)ccc4F)ccc32)C1 (centres unmarked) [Compound 15, 1-(5-((2,5-difluorobenzyl)oxy)-2,3-dihydro-1H-inden-1-yl)azetidine-3-carboxylic acid] | 10 to 100 |
| O=C(O)C1CN(C2CCc3cc(OCc4ccc(F)c(Cl)c4)ccc32)C1 (centres unmarked) [Compound 16, 1-(5-((3-chloro-4-fluorobenzyl)oxy)-2,3-dihydro-1H-inden-1-yl)azetidine-3-carboxylic acid] | 10 to 100 |
| O=C(O)C1CN(C2CCc3cc(OCc4cc(F)c(F)cc4F)ccc32)C1 (centres unmarked) [Compound 17, 1-(5-((2,4,5-trifluorobenzyl)oxy)-2,3-dihydro-1H-inden-1-yl)azetidine-3-carboxylic acid] | 1 to 10 |
| O=C(O)C1CN(C2CCc3cc(OCc4cc(F)cc(F)c4F)ccc32)C1 (centres unmarked) [Compound 18, 1-(5-((2,3,5-trifluorobenzyl)oxy)-2,3-dihydro-1H-inden-1-yl)azetidine-3-carboxylic acid] | 10 to 100 |
| O=C(O)C1CN(C2CCc3cc(OCc4ccc(F)c(F)c4)ccc32)C1 (centres unmarked) [Compound 19, 1-(5-((3,4-difluorobenzyl)oxy)-2,3-dihydro-1H-inden-1-yl)azetidine-3-carboxylic acid] | 10 to 100 |
| O=C(O)C1CN(C2CCc3cc(OCc4cccc(I)c4)ccc32)C1 (centres unmarked) [Compound 20, 1-(5-((3-iodobenzyl)oxy)-2,3-dihydro-1H-inden-1-yl)azetidine-3-carboxylic acid] | 10 to 100 |
| O=C(O)C1CN(C2CCc3cc(OCc4ccc(I)cc4)ccc32)C1 (centres unmarked) [Compound 21, 1-(5-((4-iodobenzyl)oxy)-2,3-dihydro-1H-inden-1-yl)azetidine-3-carboxylic acid] | 100 to 1000 |
| O=C(O)[C@H]1[C@@H]2CN(C3CCc4cc(OCc5c(Cl)cccc5Cl)ccc43)C[C@@H]21 (stereo partly drawn) [Compound 22, (1R,5S,6r)-3-(5-((2,6-dichlorobenzyl)oxy)-2,3-dihydro-1H-inden-1-yl)-3-azabicyclo[3.1.0]hexane-6-carboxylic acid] | 100 to 1000 |
| O=C(O)[C@@H]1[C@@H]2CN(C3CCc4cc(OCc5c(Cl)cccc5Cl)ccc43)C[C@@H]21 (stereo partly drawn) [Compound 23, (1R,5S,6s)-3-(5-((2,6-dichlorobenzyl)oxy)-2,3-dihydro-1H-inden-1-yl)-3-azabicyclo[3.1.0]hexane-6-carboxylic acid] | 1 to 10 |
| O=C(O)C1CC2(C1)CN(C1CCc3cc(OCc4c(Cl)cccc4Cl)ccc31)C2 (centres unmarked) [Compound 27, 2-(5-((2,6-dichlorobenzyl)oxy)-2,3-dihydro-1H-inden-1-yl)-2-azaspiro[3.3]heptane-6-carboxylic acid] | 1 to 10 |
| CC1(C)CC(C(=O)O)CCN1C1CCc2cc(OCc3c(Cl)cccc3Cl)ccc21 (centres unmarked) [Compound 28, 1-(5-((2,6-dichlorobenzyl)oxy)-2,3-dihydro-1H-inden-1-yl)-2,2-dimethylpiperidine-4-carboxylic acid] | 10 to 100 |
| CC1(C(=O)O)CCN(C2CCc3cc(OCc4c(Cl)cccc4Cl)ccc32)CC1 (centres unmarked) [Compound 29, 1-(5-((2,6-dichlorobenzyl)oxy)-2,3-dihydro-1H-inden-1-yl)-4-methylpiperidine-4-carboxylic acid] | 10 to 100 |
